Patent publication US11622961B2, “Combination therapies for treating cancer” (TESARO, INC., priority 2017, dated 2023)

What was measured:
[1] = tested on: MDA-MB436 breast carcinoma cell line; assay: MDA-MB436 HuNOG-EXL mice treated with niraparib and BLZ945: tumor volume; type: in vivo; settings: 200 mg/kg BLZ945 5 day on and 2 day off plus 80 mg/kg niraparib tosylate once daily, oral; FIG. 6A, 6B (day 26)
Procedure: This example describes the effects of treatment with an agent that inhibits PARP together with an agent that regulates activity in the tumor microenvironment in a mouse model of breast cancer. HuNOG-EXL mice inoculated with MDA-MB436 breast carcinoma cell line were orally administered: i) 80 mg/kg of niraparib tosylate once daily; ii) 200 mg/kg BLZ945 (an anti-CSF-1R that binds to CSF1R and inhibits CSF1R-mediated signal transduction pathways in tumor associated macrophages) on a 5 day on and 2 day off schedule; or iii) 80 mg/kg of niraparib tosylate and 200 mg/kg BLZ945 with the same dosing schedule as the single agent groups. Control mice were administered an isotype control antibody twice weekly via intraperitoneal injection.
Tumor volumes were recorded twice in a week with a gap of 2-3 days in between two measurements until tumor volume reached 600-1000 mm^3 in the control mice.

[2] = crystalline solid; cited from earlier work
[3] = tested on: primary Murine skin cancer model mSK6005; settings: 50 mg/kg orally once daily for 21 days, compared to vehicle treated mice
Procedure: This example describes the effects of treatment with an agent that inhibits PARP signaling on tumor microenvironment in a mouse model of colorectal cancer. 50 mg/kg of niraparib or vehicle (0.5% methylcellulose) was orally administered once daily for 21 days to C57BL/6 mice inoculated with primary Murine skin cancer model mSK6005 fragment developed from Apc^Min/J heterozygous background. Formalin-fixed, paraffin-embedded (FFPE) blocks were prepared from tumor samples collected from the mice. Immunohistochemistry (IHC) staining was performed on FFPE samples to assess expression of various markers for immune response in the tumor samples. Five fields in each staining, without necrosis, were randomly selected and imaged at 20× magnification.
All the images were analyzed with Image J software. For CD4, CD8, and FoxP3 IHC, positive cells were counted and the average of 5 fields positive cell numbers was taken as the score value of each case. For Iba1 IHC, the percentage of Iba1 positive expression area or mean gray was measured and taken as the score value of each case. The percentages of tumor cells at different intensity levels were evaluated according to the calculation below. Total Score=(% at 0)×0+(% at 1)×1+(% at 2)×2+(% at 3)×3

[4] = tested on: MDA-MB-436
Source text: FIG. 5A depicts percentage of Ki67-positive CD4 and CD8 positive cells among total CD3 population in control or niraparib treated mice as assessed by flow cytometry.
FIG. 5B depicts tumor volume in MDA-MB-436 huNOG-EXL mice treated with niraparib or control.

[5] = target: T1, CTLA-4 (Homo sapiens, UniProt P16410); settings: biopsy samples taken after tremelimumab treatment; cited from earlier work
T1 construct: host or cells: metastatic melanoma patients (endogenous CTLA-4)
T1 sequence (P16410 36-223): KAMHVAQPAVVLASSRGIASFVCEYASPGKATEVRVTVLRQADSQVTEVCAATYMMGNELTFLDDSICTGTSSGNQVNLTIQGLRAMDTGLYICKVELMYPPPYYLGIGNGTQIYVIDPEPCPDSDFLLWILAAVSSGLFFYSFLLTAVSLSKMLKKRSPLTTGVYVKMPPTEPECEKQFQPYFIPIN

CNC(=O)c1cc(Oc2ccc3nc(N[C@@H]4CCCC[C@H]4O)sc3c2)ccn1 [BLZ945]
anti-tumor activity of the combination (tumor volume) [1]: enhances anti-tumor activity of niraparib

Cc1ccc(S(=O)(=O)O)cc1.NC(=O)c1cccc2cn(-c3ccc([C@@H]4CCCNC4)cc3)nc12.O [Niraparib tosylate monohydrate, (3 S)-3-[4-{7-(aminocarbonyl)-2H-indazol-2-yl}phenyl]piperidine tosylate monohydrate]
hygroscopicity of drug substance [2]: non-hygroscopic

NC(=O)c1cccc2cn(-c3ccc([C@@H]4CCCNC4)cc3)nc12 [niraparib, (3S)-3-[4-{7-(aminocarbonyl)-2H-indazol-2-yl}phenyl]piperidine]
expression of CD4 in tumor samples (IHC) [3]: Increased expression
expression of CD8 in tumor samples (IHC) [3]: Increased expression
expression of FoxP3 in tumor samples (IHC) [3]: Increased expression
expression of Iba1 in tumor samples (IHC) [3]: Increased expression
tumor growth ([4]; 35 mg/kg QD×5/week (FIG. 5B)): reduction of tumor growth
percentage of CD8+ cells ([4]; 35 mg/kg QD×5/week, flow cytometry (FIG. 5A)): increased percentage of CD8+ cells

tremelimumab: anti-CTLA-4 antibody
intratumoral infiltration by CD8+ cells [5]: highly significant increase
